Converted amounts (≈) assume the structure as drawn. The source made the active and inactive calls. The calls are words filed in the database; no cut-off is given here.
Tests used:
Plasmodium falciparum [1] = assay: Antiplasmodial activity against Plasmodium falciparum Dd2 assessed as inhibition of [3H]hypoxanthine incorporation incubated for 24 hrs prior to [3H]hypoxanthine addition measured after 24 hrs by beta scintillation counting; format: functional, organism-based
[2] = biological target: T1, 5-hydroxytryptamine receptor 2C (Homo sapiens, UniProt P28335); assay: Inhibition of human 5HT2c receptor expressed in CHO-K1 cells assessed as inhibition of 5HT-induced calcium influx measured up to 30 secs by aequorin luminescence assay; format: functional, cell-based
T1 sequence (P28335 whole entry): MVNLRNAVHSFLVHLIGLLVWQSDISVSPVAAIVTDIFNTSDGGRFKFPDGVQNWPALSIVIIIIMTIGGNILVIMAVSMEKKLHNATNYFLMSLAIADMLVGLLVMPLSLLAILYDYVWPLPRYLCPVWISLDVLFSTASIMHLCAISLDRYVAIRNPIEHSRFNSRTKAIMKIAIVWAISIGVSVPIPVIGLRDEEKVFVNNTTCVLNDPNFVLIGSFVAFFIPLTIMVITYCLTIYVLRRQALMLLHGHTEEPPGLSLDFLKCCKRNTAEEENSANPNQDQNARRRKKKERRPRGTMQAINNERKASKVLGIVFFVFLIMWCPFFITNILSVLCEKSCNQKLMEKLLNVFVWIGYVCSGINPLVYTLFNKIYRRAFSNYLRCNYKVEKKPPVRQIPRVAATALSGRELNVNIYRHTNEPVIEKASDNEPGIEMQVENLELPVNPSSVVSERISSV

Liver = assay: Intrinsic clearance in mouse liver microsomes at 0.5 uM by HPLC analysis; format: ADME, Microsome
Liver microsomes = assay: Intrinsic clearance in human liver microsomes at 0.5 uM by HPLC analysis; format: ADME, Microsome
Plasmodium falciparum [3] = assay: microbe, parasite or virus in culture; details: 3D7 A
Description: Antiplasmodial activity against Plasmodium falciparum 3D7A assessed as inhibition of [3H]hypoxanthine incorporation incubated for 24 hrs prior to [3H]hypoxanthine addition measured after 24 hrs by beta scintillation counting

Plasmodium falciparum [4] = assay: Antiplasmodial activity against Plasmodium falciparum assessed as pyknotic phenotype after 24 hrs by Giemsa-staining method; format: functional, organism-based
[5] = Plasma protein binding in mouse at 1 ug/mL by equilibrium dialysis method; format: ADME, cell-free; details: read-out: PPB (converted)
Cytochrome P450 2C9 = Cytochrome P450 2C9 (Homo sapiens, UniProt P11712); assay: Inhibition of human CYP2C9 using 7-methoxy-4-triflouromethylcoumarin-3-acetic acid as substrate incubated for 30 mins prior to substrate addition measured up to 10 mins by fluorimetry; format: ADME
Cytochrome P450 2D6 = Cytochrome P450 2D6 (Homo sapiens, UniProt P10635); assay: Inhibition of human CYP2D6 using 4-methylaminomethyl-7-methoxycoumarin as substrate incubated for 30 mins prior to substrate addition measured up to 10 mins by fluorimetry; format: ADME
Cytochrome P450 3A4 = Cytochrome P450 3A4 (Homo sapiens, UniProt P08684); assay: Inhibition of human CYP3A4 using 7-benzyloxyquinoline as substrate incubated for 30 mins prior to substrate addition measured up to 10 mins by fluorimetry; format: ADME
Cytochrome P450 2C19 = Cytochrome P450 2C19 (Homo sapiens, UniProt P33261); assay: Inhibition of human CYP2C19 using 3-butyryl-7-methoxycoumarin as substrate incubated for 30 mins prior to substrate addition measured up to 10 mins by fluorimetry; format: ADME
[6] = biological target: Voltage-gated inwardly rectifying potassium channel KCNH2 (Homo sapiens, UniProt Q12809); assay: Displacement of Cy3b-tagged dofetilide from human ERG expressed in CHO cells by fluorescence polarization assay
[7] = Chromatographic hydrophobicity index of the compound at pH 2; format: physicochemical
[8] = Chromatographic hydrophobicity index of the compound at pH 7.4; format: physicochemical
[9] = Chromatographic hydrophobicity index of the compound at pH 10.5; format: physicochemical
[10] = Equilibrium solubility of the compound in phosphate buffer saline after 24 hrs by LC-MS analysis at pH 7.4; format: physicochemical
[11] = Equilibrium solubility of the compound in fasted state simulated intestinal fluid after 24 hrs by LC-MS analysis at pH 6.8; format: physicochemical
[12] = Equilibrium solubility of the compound in fed state simulated intestinal fluid after 24 hrs by LC-MS analysis at pH 5; format: physicochemical
Plasmodium falciparum [13] = assay: Antiplasmodial activity against Plasmodium falciparum 3D7A assessed as inhibition of [3H]hypoxanthine incorporation after 96 hrs by beta scintillation counting; format: functional, organism-based; details: 3D7 A
Plasmodium falciparum [14] = assay: Antiplasmodial activity against Plasmodium falciparum assessed as pyknotic phenotype at 10-fold IC50 after 24 hrs by Giemsa-staining method; format: functional, organism-based
Plasmodium falciparum [15] = assay: Antiplasmodial activity against Plasmodium falciparum 3D7A assessed as inhibition of [3H]hypoxanthine incorporation after 72 hrs by beta scintillation counting; format: functional, organism-based; details: 3D7 A
[16] = Equilibrium solubility of the compound in simulated gastric fluid after 24 hrs by LC-MS analysis at pH1.2; format: physicochemical; details: pH 1.2
Plasmodium falciparum [17] = assay: Selectivity ratio of IC50 for Plasmodium falciparum Dd2 to IC50 for Plasmodium falciparum HB3; format: functional
Plasmodium falciparum [18] = assay: Antiplasmodial activity against Plasmodium falciparum HB3 assessed as inhibition of [3H]hypoxanthine incorporation incubated for 24 hrs prior to [3H]hypoxanthine addition measured after 24 hrs by beta scintillation counting; format: functional, organism-based
[19] = Cytotoxicity against human HepG2 cells after 48 hrs by resazurin reduction assay; format: cell-based; details: read-out: TC50
[20] = Cytotoxicity against mouse L1210 cells after 48 hrs by resazurin reduction assay; format: cell-based; details: read-out: TC50
[21] = Cytotoxicity against mouse Neuro2a cells after 48 hrs by resazurin reduction assay; format: cell-based, N2a; details: read-out: TC50
[22] = Cytotoxicity against rat H9c2(2-1) cells after 48 hrs by resazurin reduction assay; format: cell-based; details: read-out: TC50
[23] = Cytotoxicity against MDCK cells after 48 hrs by resazurin reduction assay; format: cell-based, Canis lupus familiaris; details: dog, read-out: TC50
Albumin = Albumin (Homo sapiens, UniProt P02768); assay: Binding affinity to human serum albumin by HPLC analysis; format: ADME; details: isolated protein
Plasmodium berghei [24] = assay: Antimalarial activity against Plasmodium berghei ANKA infected in CD1 mouse assessed as inhibition of parasitemia at 50 mg/kg, po administered QD for 2 days measured after 4 days by YOYO1-based flow cytometric analysis relative to vehicle-treated control; format: functional
Plasmodium berghei [25] = assay: Antimalarial activity against Plasmodium berghei ANKA assessed as reduction in viable parasites at 10 times IC50 after 72 hrs; format: functional, organism-based

Sequence of Voltage-gated inwardly rectifying potassium channel KCNH2 (Q12809 whole entry): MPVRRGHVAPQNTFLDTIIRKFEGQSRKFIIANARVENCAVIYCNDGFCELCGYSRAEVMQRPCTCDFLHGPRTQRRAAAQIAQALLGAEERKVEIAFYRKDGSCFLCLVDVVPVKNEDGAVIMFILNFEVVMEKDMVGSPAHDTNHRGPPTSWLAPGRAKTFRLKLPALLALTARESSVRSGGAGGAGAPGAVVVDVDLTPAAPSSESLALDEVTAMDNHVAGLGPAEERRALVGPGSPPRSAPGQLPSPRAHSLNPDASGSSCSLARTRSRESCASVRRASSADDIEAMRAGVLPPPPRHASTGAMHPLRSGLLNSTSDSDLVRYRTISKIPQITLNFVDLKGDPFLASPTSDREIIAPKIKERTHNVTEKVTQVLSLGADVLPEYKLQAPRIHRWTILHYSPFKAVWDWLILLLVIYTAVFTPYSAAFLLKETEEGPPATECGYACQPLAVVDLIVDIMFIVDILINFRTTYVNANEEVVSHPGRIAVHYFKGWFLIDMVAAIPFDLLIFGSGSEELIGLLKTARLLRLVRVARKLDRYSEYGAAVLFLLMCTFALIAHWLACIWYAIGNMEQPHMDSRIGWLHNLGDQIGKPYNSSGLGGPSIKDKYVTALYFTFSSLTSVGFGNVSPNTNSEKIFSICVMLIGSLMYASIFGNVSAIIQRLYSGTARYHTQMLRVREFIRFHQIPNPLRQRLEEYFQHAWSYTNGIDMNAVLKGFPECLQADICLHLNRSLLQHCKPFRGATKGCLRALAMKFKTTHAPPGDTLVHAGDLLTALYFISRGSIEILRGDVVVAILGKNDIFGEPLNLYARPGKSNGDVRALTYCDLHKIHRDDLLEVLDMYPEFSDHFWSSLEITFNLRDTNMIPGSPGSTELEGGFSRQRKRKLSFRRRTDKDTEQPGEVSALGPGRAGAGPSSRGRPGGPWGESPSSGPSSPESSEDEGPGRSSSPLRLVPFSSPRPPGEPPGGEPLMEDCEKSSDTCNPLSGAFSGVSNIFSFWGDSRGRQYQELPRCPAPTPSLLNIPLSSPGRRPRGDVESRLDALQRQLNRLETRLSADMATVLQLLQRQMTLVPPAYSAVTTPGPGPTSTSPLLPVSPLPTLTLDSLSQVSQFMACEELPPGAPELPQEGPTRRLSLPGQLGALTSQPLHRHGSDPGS
Sequence of Cytochrome P450 2C19 (P33261 whole entry): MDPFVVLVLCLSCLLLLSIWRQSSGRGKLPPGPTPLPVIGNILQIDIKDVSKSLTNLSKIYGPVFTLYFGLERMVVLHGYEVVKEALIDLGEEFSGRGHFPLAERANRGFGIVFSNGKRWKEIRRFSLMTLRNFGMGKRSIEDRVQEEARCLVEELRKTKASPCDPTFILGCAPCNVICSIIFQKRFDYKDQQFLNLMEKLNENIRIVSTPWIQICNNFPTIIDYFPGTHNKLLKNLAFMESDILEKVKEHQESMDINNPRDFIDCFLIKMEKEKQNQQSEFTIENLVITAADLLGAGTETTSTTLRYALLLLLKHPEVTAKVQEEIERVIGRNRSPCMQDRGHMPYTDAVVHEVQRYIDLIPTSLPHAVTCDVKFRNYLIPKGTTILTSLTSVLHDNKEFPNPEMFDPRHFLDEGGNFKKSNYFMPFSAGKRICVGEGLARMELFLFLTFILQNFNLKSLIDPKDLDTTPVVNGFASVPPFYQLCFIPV
Sequence of Cytochrome P450 2C9 (P11712 whole entry): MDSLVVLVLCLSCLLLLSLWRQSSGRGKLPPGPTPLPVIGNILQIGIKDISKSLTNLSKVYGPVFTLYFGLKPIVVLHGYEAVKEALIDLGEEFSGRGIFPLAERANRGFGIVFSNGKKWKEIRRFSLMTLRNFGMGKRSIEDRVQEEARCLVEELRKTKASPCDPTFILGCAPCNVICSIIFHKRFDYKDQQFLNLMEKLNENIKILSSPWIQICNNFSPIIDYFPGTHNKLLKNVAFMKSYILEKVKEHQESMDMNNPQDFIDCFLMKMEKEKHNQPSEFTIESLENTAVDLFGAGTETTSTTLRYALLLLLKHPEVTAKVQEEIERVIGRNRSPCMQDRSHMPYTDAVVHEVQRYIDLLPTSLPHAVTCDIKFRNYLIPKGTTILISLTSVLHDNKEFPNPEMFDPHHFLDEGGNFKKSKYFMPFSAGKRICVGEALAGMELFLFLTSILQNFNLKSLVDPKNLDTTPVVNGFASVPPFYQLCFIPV
Sequence of Albumin (P02768 whole entry): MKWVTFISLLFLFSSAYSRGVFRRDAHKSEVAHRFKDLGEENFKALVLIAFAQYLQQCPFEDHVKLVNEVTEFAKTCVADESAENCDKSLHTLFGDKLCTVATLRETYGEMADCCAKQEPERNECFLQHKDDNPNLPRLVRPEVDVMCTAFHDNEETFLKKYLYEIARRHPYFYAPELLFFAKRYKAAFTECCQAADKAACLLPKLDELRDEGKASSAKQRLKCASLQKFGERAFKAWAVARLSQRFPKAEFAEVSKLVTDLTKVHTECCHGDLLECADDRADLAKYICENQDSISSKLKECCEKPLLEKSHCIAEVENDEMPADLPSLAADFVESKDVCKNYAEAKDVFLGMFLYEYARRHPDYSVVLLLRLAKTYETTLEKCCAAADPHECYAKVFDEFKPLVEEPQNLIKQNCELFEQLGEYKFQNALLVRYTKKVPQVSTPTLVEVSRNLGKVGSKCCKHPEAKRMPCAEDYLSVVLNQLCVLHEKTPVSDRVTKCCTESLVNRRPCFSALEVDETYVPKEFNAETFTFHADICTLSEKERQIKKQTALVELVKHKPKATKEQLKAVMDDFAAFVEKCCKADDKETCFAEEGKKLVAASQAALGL
Sequence of Cytochrome P450 3A4 (P08684 whole entry): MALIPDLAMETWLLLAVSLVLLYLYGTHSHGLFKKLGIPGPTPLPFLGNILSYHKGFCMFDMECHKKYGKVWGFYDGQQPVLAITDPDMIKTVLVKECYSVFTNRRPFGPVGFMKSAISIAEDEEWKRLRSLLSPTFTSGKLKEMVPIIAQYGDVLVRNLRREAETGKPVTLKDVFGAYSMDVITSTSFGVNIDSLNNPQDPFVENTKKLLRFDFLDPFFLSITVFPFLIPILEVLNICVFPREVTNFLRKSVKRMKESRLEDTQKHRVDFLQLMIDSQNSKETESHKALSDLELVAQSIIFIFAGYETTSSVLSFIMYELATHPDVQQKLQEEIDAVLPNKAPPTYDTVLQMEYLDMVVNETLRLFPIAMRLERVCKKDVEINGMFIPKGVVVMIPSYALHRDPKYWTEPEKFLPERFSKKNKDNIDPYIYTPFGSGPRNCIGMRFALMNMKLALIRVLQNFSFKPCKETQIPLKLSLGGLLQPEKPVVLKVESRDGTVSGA
Sequence of Cytochrome P450 2D6 (P10635 whole entry): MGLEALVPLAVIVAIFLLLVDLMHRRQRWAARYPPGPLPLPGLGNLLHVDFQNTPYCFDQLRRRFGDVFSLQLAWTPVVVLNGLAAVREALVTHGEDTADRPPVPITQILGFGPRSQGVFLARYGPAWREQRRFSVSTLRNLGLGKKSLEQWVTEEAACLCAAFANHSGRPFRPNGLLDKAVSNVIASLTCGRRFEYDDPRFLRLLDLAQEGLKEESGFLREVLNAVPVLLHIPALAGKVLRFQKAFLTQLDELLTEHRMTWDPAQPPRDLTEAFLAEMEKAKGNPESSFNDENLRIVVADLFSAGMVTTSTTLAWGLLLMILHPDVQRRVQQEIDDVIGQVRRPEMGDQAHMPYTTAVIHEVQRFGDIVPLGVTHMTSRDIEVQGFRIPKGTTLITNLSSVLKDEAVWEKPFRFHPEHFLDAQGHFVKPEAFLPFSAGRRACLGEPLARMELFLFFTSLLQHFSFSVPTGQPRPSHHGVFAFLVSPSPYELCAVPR

O=C(Nc1cc(OC(F)(F)F)cc(-c2cccnc2)c1)N1CCc2ccc(F)cc21
IC50 (Plasmodium falciparum [1]): 0.01 µM | IC50 [2]: 0.6 µM | CLH (Liver): 2.1 mL/min/g | CLH (Liver microsomes): 0.5 mL/min/g | IC50 (Plasmodium falciparum [3]): 0.01 µM

COc1cc2c(cc1C(F)(F)F)N(C(=O)Nc1cc(-c3cccnc3)cc(C(F)(F)F)c1)CC2
IC50 (Plasmodium falciparum [1]): 0.81 µM | IC50 [2]: 0.01 µM | IC50 (Plasmodium falciparum [3]): 0.14 µM

C[C@@H]1CC[C@H]2[C@@H](C)C(=O)O[C@@H]3O[C@@]4(C)CC[C@@H]1[C@]32OO4 [ARTEMISININ]
Activity (Plasmodium falciparum [4]): Active | IC50 (Plasmodium falciparum [3]): 0.02 µM

COc1cc2c(cc1C(F)(F)F)N(C(=O)Nc1cc(OC(F)(F)F)cc(-c3ccccc3)c1)CC2
IC50 (Plasmodium falciparum [3]): 2.26 µM

COc1cc2c(cc1C(F)(F)F)N(C(=O)Nc1cc(F)cc(-c3cccnc3)c1)CC2
IC50 (Plasmodium falciparum [1]): 2.12 µM | IC50 [2]: 0.01 µM | IC50 (Plasmodium falciparum [3]): 0.43 µM

O=C(Nc1cc(OC(F)(F)F)cc(-c2cccnc2)c1)N1CCc2cc(C(F)(F)F)ccc21
IC50 (Plasmodium falciparum [3]): 0.02 µM

O=C(Nc1cc(OC(F)(F)F)cc(-c2cccnc2)c1)N1CCc2ccc(Cl)cc21
IC50 (Plasmodium falciparum [3]): 0.15 µM

O=C(Nc1cc(OC(F)(F)F)cc(-c2cccnc2)c1)N1CCc2cc(F)ccc21
IC50 (Plasmodium falciparum [3]): 0.01 µM

Cc1cc2c(cc1Cl)N(C(=O)Nc1cc(OC(F)(F)F)cc(-c3cccnc3)c1)CC2
IC50 (Plasmodium falciparum [1]): 0.14 µM | IC50 (Plasmodium falciparum [3]): 0.02 µM

COc1cc2c(cc1C(F)(F)F)N(C(=O)Nc1cc(OC(F)(F)F)cc(-c3ccc(C)nc3)c1)CC2
IC50 (Plasmodium falciparum [1]): 0.8 µM | IC50 (Plasmodium falciparum [3]): 0.29 µM

Cc1ccc2c(c1)CCN2C(=O)Nc1cc(OC(F)(F)F)cc(-c2cccnc2)c1
IC50 (Plasmodium falciparum [1]): 0.04 µM | IC50 (Plasmodium falciparum [3]): 0.01 µM

Cc1ccc2c(c1)N(C(=O)Nc1cc(OC(F)(F)F)cc(-c3cccnc3)c1)CC2
IC50 (Plasmodium falciparum [3]): 0.03 µM

O=C(Nc1cc(OC(F)(F)F)cc(-c2cccnc2)c1)N1CCc2ccc(CO)cc21
IC50 [2]: 0.18 µM | IC50 (Plasmodium falciparum [3]): 0.4 µM

COc1cc2c(cc1C(F)(F)F)N(C(=O)Nc1cccc(-c3cccnc3)c1)CC2
IC50 [2]: 0.007 µM | IC50 (Plasmodium falciparum [3]): 4.45 µM

COc1cc2c(cc1C(F)(F)F)N(C(=O)Nc1cc(OC(F)(F)F)cc(-c3cccnc3)c1)CC2
fraction unbound at 1 ug/mL [5]: 0.002 | IC50 (Cytochrome P450 2C9): 2 µM | IC50 (Cytochrome P450 2D6): 13 µM | IC50 (Cytochrome P450 3A4): > 50 µM | IC50 (Cytochrome P450 2C19): > 50 µM | Activity [6]: > 16 µM | CHI [7]: 3.09 | CHI [8]: 4.22 | CHI [9]: 4.18 | solubility thermodynamic at 24 h [10]: < 0.0001 mg/mL | solubility thermodynamic at 24 h [11]: < 0.0001 mg/mL | solubility thermodynamic at 24 h [12]: 0.0167 mg/mL (≈ 33.6 µM) | IC50 (Plasmodium falciparum [13]): 0.025 µM | Activity (Plasmodium falciparum [14]): Active | IC50 (Plasmodium falciparum [15]): 0.04 µM | solubility thermodynamic at 24 h [16]: 1.55 mg/mL (≈ 3120 µM) | Ratio IC50 (Plasmodium falciparum [17]): >10 | IC50 (Plasmodium falciparum [18]): 0.09 µM | IC50 (Plasmodium falciparum [1]): > 1 µM | IC50 [2]: 0.05 µM | CC50 at 48 h [19]: 7 µM | CC50 at 48 h [20]: 3.2 µM | CC50 at 48 h [21]: > 12.5 µM | CC50 at 48 h [22]: > 12.5 µM | CC50 at 48 h [23]: > 12.5 µM | CLH (Liver): < 0.3 mL/min/g | CLH (Liver microsomes): < 0.3 mL/min/g | Activity (Albumin): 97.8%

O=C(Nc1cc(OC(F)(F)F)cc(-c2cccnc2)c1)N1CCc2cccc(F)c21
IC50 (Plasmodium falciparum [1]): 1.07 µM | IC50 [2]: > 40 µM | IC50 (Plasmodium falciparum [3]): 0.41 µM

CCc1nc(N)nc(N)c1-c1ccc(Cl)cc1 [PYRIMETHAMINE]
IC50 (Plasmodium falciparum [1]): > 40 µM | IC50 (Plasmodium falciparum [3]): 0.02 µM

CCN(CC)CCCC(C)Nc1ccnc2cc(Cl)ccc12 (stereo unspecified)
Activity (Plasmodium falciparum [4]): Active

COc1cc2c(cc1C(F)(F)F)N(C(=O)Nc1cc(Br)cc(OC(F)(F)F)c1)CC2
IC50 [2]: 0.39 µM | IC50 (Plasmodium falciparum [3]): 4.84 µM

COc1cc2c(cc1C(F)(F)F)N(C(=O)Nc1cc(C)cc(OC(F)(F)F)c1)CC2
IC50 (Plasmodium falciparum [3]): > 5 µM

COc1cc2c(cc1C(F)(F)F)N(C(=O)Nc1cc(OC(F)(F)F)cc(-c3cncnc3)c1)CC2
IC50 (Plasmodium falciparum [1]): > 1 µM | IC50 (Plasmodium falciparum [3]): 0.03 µM

O=C(Nc1cc(OC(F)(F)F)cc(-c2cccnc2)c1)N1CCc2ccc(Br)cc21
IC50 (Plasmodium falciparum [1]): 0.64 µM | IC50 (Plasmodium falciparum [3]): 0.19 µM

COc1cc2c(cc1C(F)(F)F)N(C(=O)Nc1cccc(OC(F)(F)F)c1)CC2
IC50 (Plasmodium falciparum [3]): > 5 µM

O=C(Nc1cc(OC(F)(F)F)cc(-c2cccnc2)c1)N1CCc2ccccc21
IC50 (Plasmodium falciparum [1]): 0.02 µM | IC50 [2]: 1.25 µM | IC50 (Plasmodium falciparum [3]): 0.01 µM

COc1cc2c(cc1C(F)(F)F)N(C(=O)Nc1cc(OC(F)(F)F)cc(-c3cc[nH]c3)c1)CC2
IC50 (Plasmodium falciparum [3]): 1.07 µM

CN1CCN(c2cc3c(cc2Cl)CCN3C(=O)Nc2cc(OC(F)(F)F)cc(-c3cccnc3)c2)CC1
inhibition in vivo at 50 mg/kg (Plasmodium berghei [24]): 35% | Activity (Plasmodium berghei [25]): Active | IC50 (Plasmodium falciparum [1]): 0.21 µM | IC50 [2]: 10 µM | IC50 (Plasmodium falciparum [3]): 0.14 µM

CN1CCN(c2ccc3c(c2)N(C(=O)Nc2cc(OC(F)(F)F)cc(-c4cccnc4)c2)CC3)CC1
IC50 [2]: > 40 µM | IC50 (Plasmodium falciparum [3]): 0.49 µM

COc1ccc2c(c1)N(C(=O)Nc1cc(OC(F)(F)F)cc(-c3cccnc3)c1)CC2
IC50 [2]: 0.12 µM | IC50 (Plasmodium falciparum [3]): 0.09 µM

COc1cc2c(cc1C(F)(F)F)N(C(=O)Nc1cc(Br)cc(-c3cccnc3)c1)CC2
IC50 (Plasmodium falciparum [1]): 1.1 µM | IC50 [2]: 0.01 µM | IC50 (Plasmodium falciparum [3]): 0.16 µM
